Here are results for 20 molecules from patent US20250333424A1, “ANTIVIRAL COMPOUNDS” (Gilead Sciences, Inc., priority 2024, published 2025).

The subject of this assay is monocytic THP1 cells infected with HIV VSV-G pseudotyped GFP-NEF reporter virus. Kind of assay: cells. It counts as cell-based. Particulars: Human immunodeficiency virus 1, THP-1, 24 h.

`Cc1cc(/C=C/C#N)cc(C)c1Oc1nc(NC23CC(C#N)(C2)C3)nc2nc(C3CCCC3)[nH]c12` [Compound 53, (E)-3-((6-(4-(2-cyanovinyl)-2,6-dimethylphenoxy)-8-cyclopentyl-7H-purin-2-yl)amino)bicyclo[1.1.1]pentane-1-carbonitrile] came in with a 50% effective concentration (EC50) of 233 nM. `Cc1cc(/C=C/C#N)cc(C)c1Oc1nc(NC23CC(C#N)(C2)C3)nc2nc(C3CCC(F)(F)CC3)[nH]c12` [Compound 54, (E)-3-((6-(4-(2-cyanovinyl)-2,6-dimethylphenoxy)-8-(4,4-difluorocyclohexyl)-7H-purin-2-yl)amino)bicyclo[1.1.1]pentane-1-carbonitrile] displayed an EC50 of 364 nM. To `Cc1cc(/C=C/C#N)cc(C)c1Oc1nc(NC23CC(C#N)(C2)C3)nc2c1nc(C)n2CCC#N` [Compound 57, (E)-3-((9-(2-cyanoethyl)-6-(4-(2-cyanovinyl)-2,6-dimethylphenoxy)-8-methyl-9H-purin-2-yl)amino)bicyclo[1.1.1]pentane-1-carbonitrile] belongs 147 nM; to `Cc1cc(/C=C/C#N)cc(C)c1Oc1nc(NC23CC(C#N)(C2)C3)nc2nc(-c3cc[nH]n3)[nH]c12` [Compound 63, (E)-3-((6-(4-(2-cyanovinyl)-2,6-dimethylphenoxy)-8-(1H-pyrazol-3-yl)-7H-purin-2-yl)amino)bicyclo[1.1.1]pentane-1-carbonitrile], 62.8 nM; to `Cc1cc(/C=C/C#N)cc(C)c1Oc1nc(NC23CC(C#N)(C2)C3)nc2nc(-c3ccn(C)n3)[nH]c12` [Compound 65, (E)-3-((6-(4-(2-cyanovinyl)-2,6-dimethylphenoxy)-8-(1-methyl-1H-pyrazol-3-yl)-7H-purin-2-yl)amino)bicyclo[1.1.1]pentane-1-carbonitrile], 132 nM. `Cc1cc(/C=C/C#N)cc(C)c1Oc1nc(NC23CC(C#N)(C2)C3)nc2nc(-c3cn[nH]c3)[nH]c12` [Compound 66, (E)-3-((6-(4-(2-cyanovinyl)-2,6-dimethylphenoxy)-8-(1H-pyrazol-4-yl)-7H-purin-2-yl)amino)bicyclo[1.1.1]pentane-1-carbonitrile]: the EC50 stood at 298 nM.

`Cc1cc(/C=C/C#N)cc(C)c1Oc1nc(NC23CC(C#N)(C2)C3)nc2nc(Nc3c(C)noc3C)[nH]c12` [Compound 67, (E)-3-((6-(4-(2-cyanovinyl)-2,6-dimethylphenoxy)-8-((3,5-dimethylisoxazol-4-yl)amino)-7H-purin-2-yl)amino)bicyclo[1.1.1]pentane-1-carbonitrile] displayed an EC50 of 231 nM. To `Cc1cc(/C=C/C#N)cc(C)c1Oc1nc(NC23CC(C#N)(C2)C3)nc2nc(Nc3ccccn3)[nH]c12` [Compound 68, (E)-3-((6-(4-(2-cyanovinyl)-2,6-dimethylphenoxy)-8-(pyridin-2-ylamino)-7H-purin-2-yl)amino)bicyclo[1.1.1]pentane-1-carbonitrile] belongs 273 nM. The same measure for `Cc1cc(/C=C/C#N)cc(C)c1Oc1nc(NC23CC(C#N)(C2)C3)nc2nc(Nc3cccnc3)[nH]c12` [Compound 69, (E)-3-((6-(4-(2-cyanovinyl)-2,6-dimethylphenoxy)-8-(pyridin-3-ylamino)-7H-purin-2-yl)amino)bicyclo[1.1.1]pentane-1-carbonitrile]: 496 nM.

In turn, `Cc1cc(/C=C/C#N)cc(C)c1Oc1nc(NC23CC(C#N)(C2)C3)nc2nc(Nc3ccccc3)[nH]c12` [Compound 70, (E)-3-((6-(4-(2-cyanovinyl)-2,6-dimethylphenoxy)-8-(phenylamino)-7H-purin-2-yl)amino)bicyclo[1.1.1]pentane-1-carbonitrile] registered an EC50 of 415 nM. To `Cc1cc(/C=C/C#N)cc(C)c1Oc1nc(NC23CC(C#N)(C2)C3)nc2nc(-c3cnoc3)[nH]c12` [Compound 71, (E)-3-((6-(4-(2-cyanovinyl)-2,6-dimethylphenoxy)-8-(isoxazol-4-yl)-7H-purin-2-yl)amino)bicyclo[1.1.1]pentane-1-carbonitrile] belongs 274 nM; to `Cc1cc(/C=C/C#N)cc(C)c1Oc1nc(NC23CC(C#N)(C2)C3)nc2nc(-c3cncnc3)[nH]c12` [Compound 72, (E)-3-((6-(4-(2-cyanovinyl)-2,6-dimethylphenoxy)-8-(pyrimidin-5-yl)-7H-purin-2-yl)amino)bicyclo[1.1.1]pentane-1-carbonitrile], 308 nM; to `Cc1cc(/C=C/C#N)cc(C)c1Oc1nc(NC23CC(C#N)(C2)C3)nc2nc(-c3ccno3)[nH]c12` [Compound 73, (E)-3-((6-(4-(2-cyanovinyl)-2,6-dimethylphenoxy)-8-(isoxazol-5-yl)-7H-purin-2-yl)amino)bicyclo[1.1.1]pentane-1-carbonitrile], 285 nM. To `Cc1cc(/C=C/C#N)cc(C)c1Oc1nc(NC23CC(C#N)(C2)C3)nc2nn(-c3ccccc3)cc12` [Compound 74, (E)-3-((4-(4-(2-cyanovinyl)-2,6-dimethylphenoxy)-2-phenyl-2H-pyrazolo[3,4-d]pyrimidin-6-yl)amino)bicyclo[1.1.1]pentane-1-carbonitrile] belongs 162 nM.

`Cc1cc(/C=C/C#N)cc(C)c1Oc1nc(NC23CC(C#N)(C2)C3)nc2c1CCC2(F)F` [Compound 79, (E)-3-((4-(4-(2-cyanovinyl)-2,6-dimethylphenoxy)-7,7-difluoro-6,7-dihydro-5H-cyclopenta[d]pyrimidin-2-yl)amino)bicyclo[1.1.1]pentane-1-carbonitrile] yielded an EC50 of 33.2 nM. As to `Cc1cc(/C=C/C#N)cc(C)c1Oc1nc(NC23CC(C#N)(C2)C3)nc2nnn(C)c12` [Compound 81, (E)-3-((7-(4-(2-cyanovinyl)-2,6-dimethylphenoxy)-1-methyl-11H-[1,2,3]triazolo[4,5-d]pyrimidin-5-yl)amino)bicyclo[1.1.1]pentane-1-carbonitrile], it took 35.6 nM to reach a half-maximal effect (EC50). To `Cc1cc(/C=C/C#N)cc(C)c1Oc1nc(NC23CC(C#N)(C2)C3)nc2nn(C)nc12` [Compound 82, (E)-3-((7-(4-(2-cyanovinyl)-2,6-dimethylphenoxy)-2-methyl-2H-[1,2,3]triazolo[4,5-d]pyrimidin-5-yl)amino)bicyclo[1.1.1]pentane-1-carbonitrile] belongs 79 nM.

In the case of `Cc1cc(/C=C/C#N)cc(C)c1Oc1nc(NC23CC(C#N)(C2)C3)nc2nn(CC(F)F)c(C)c12` [Compound 83, (E)-3-((4-(4-(2-cyanovinyl)-2,6-dimethylphenoxy)-2-(2,2-difluoroethyl)-3-methyl-2H-pyrazolo[3,4-d]pyrimidin-6-yl)amino)bicyclo[11.1.1]pentane-1-carbonitrile], a half-maximal response (EC50) required 162 nM. To `Cc1cc(/C=C/C#N)cc(C)c1Oc1nc(NC23CC(C#N)(C2)C3)nc2nn(CC(F)(F)F)c(C)c12` [Compound 84, (E)-3-((4-(4-(2-cyanovinyl)-2,6-dimethylphenoxy)-3-methyl-2-(2,2,2-trifluoroethyl)-2H-pyrazolo[3,4-d]pyrimidin-6-yl)amino)bicyclo[1.1.1]pentane-1-carbonitrile] belongs 370 nM; to `Cc1cc(/C=C/C#N)cc(C)c1Oc1nc(NC23CC(C#N)(C2)C3)nc2nn(C)c(C)c12` [Compound 86, (E)-3-((4-(4-(2-cyanovinyl)-2,6-dimethylphenoxy)-2,3-dimethyl-2H-pyrazolo[3,4-d]pyrimidin-6-yl)amino)bicyclo[1.1.1]pentane-1-carbonitrile], 18.3 nM.
